Data reported in US9409905B2, “Antibacterial compounds and methods for use” (PTC THERAPEUTICS, INC., priority 2011, dated 2016).
Converted amounts (≈) assume the structure as drawn.

Experiments:
[1] = tested on: Staphylococcus aureus (S. aureus) 29213; assay: Antibacterial activity, microbroth dilution MIC (Table 1); type: cell-based; conditions: microbroth dilution, Gram-positive S. aureus 29213, read-out: MIC, 29213
In short: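 Broth microdilution against S. aureus 29213, E. coli 25922 and hypersensitive E. coli BAS849. MIC in μg/mL is the lowest drug concentration preventing macroscopically visible growth under test conditions.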

[2] = tested on: Escherichia coli (E. coli) BAS849; assay: as above; type: cell-based; conditions: microbroth dilution, super sensitive Gram-negative E. coli BAS849, read-out: MIC, BAS849
In short: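 In a microbroth dilution test, the minimum inhibitory concentration was defined as the lowest compound level preventing growth seen by eye, and was given in μg/mL.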

E. coli 25922 = assay: as above; type: cell-based, Escherichia coli; conditions: Escherichia coli; microbroth dilution; control Gram-negative E. coli 25922 strain; read-out: MIC, 25922
In short: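 Using broth microdilution, MIC endpoints (μg/mL) mark where visible growth no longer appears; the panel spans sensitive and control Gram-negative strains plus a Gram-positive strain.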

E. coli LZ3111 = assay: Antibacterial activity, MIC, quinolone resistant strain (Table 2); type: cell-based; conditions: Escherichia coli, LZ3111, read-out: MIC LZ3111
In short: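 Strain carries mutations conferring high-level quinolone resistance; tested by microbroth dilution, MIC recorded in μg/mL as lowest concentration preventing visible growth.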

| Structure (SMILES) | MIC [1] | MIC [2] | MIC (E. coli 25922) | MIC (E. coli LZ3111) |
| --- | --- | --- | --- | --- |
| CCc1c(-c2ccc3c(c2)cc(CN(C)Cc2ccccc2)n3C)[nH]c(=O)c(C(=O)O)c1O.Cl [Cpd 218, 6-(2-((benzyl(methyl)amino)methyl)-1-methyl-1H-indol-5-yl)-5-ethyl-4-hydroxy-2-oxo-1,2-dihydropyridine-3-carboxylic acid hydrochloride] | 3.5 to 12.5 µg/mL | < 1 µg/mL | 12.5 to 150 µg/mL | 12.5 to 150 µg/mL |
| CCc1c(-c2ccc3c(c2)cc(CNCC2CCCCC2)n3C)[nH]c(=O)c(C(=O)O)c1O.Cl [Cpd 222, 6-(2-((cyclohexylmethylamino)methyl)-1-methyl-1H-indol-5-yl)-5-ethyl-4-hydroxy-2-oxo-1,2-dihydropyridine-3-carboxylic acid hydrochloride] | 1 to 3.5 µg/mL | < 1 µg/mL | < 1 µg/mL | 12.5 to 150 µg/mL |
| CCc1c(-c2ccc3c(c2)cc(CN(C)Cc2cccnc2)n3C)[nH]c(=O)c(C(=O)O)c1O.Cl [Cpd 224, 5-ethyl-4-hydroxy-6-(1-methyl-2-((methyl(pyridin-3-ylmethyl)amino)methyl)-1H-indol-5-yl)-2-oxo-1,2-dihydropyridine-3-carboxylic acid hydrochloride] | 3.5 to 12.5 µg/mL | < 1 µg/mL | 1 to 3.5 µg/mL | 12.5 to 150 µg/mL |
| CCc1c(-c2ccc3c(c2)cc(CN(C)Cc2ccncc2)n3C)[nH]c(=O)c(C(=O)O)c1O.Cl [Cpd 225, 5-ethyl-4-hydroxy-6-(1-methyl-2-((methyl(pyridin-4-ylmethyl)amino)methyl)-1H-indol-5-yl)-2-oxo-1,2-dihydropyridine-3-carboxylic acid hydrochloride] | 3.5 to 12.5 µg/mL | < 1 µg/mL | 3.5 to 12.5 µg/mL | 12.5 to 150 µg/mL |
| CCc1c(-c2ccc3c(c2)cc(CNC(C)c2ccncc2)n3C)[nH]c(=O)c(C(=O)O)c1O.Cl (centres unmarked) [Cpd 226, 5-ethyl-4-hydroxy-6-(1-methyl-2-((1-(pyridin-4-yl)ethylamino)methyl)-1H-indol-5-yl)-2-oxo-1,2-dihydropyridine-3-carboxylic acid hydrochloride] | 1 to 3.5 µg/mL | < 1 µg/mL | 1 to 3.5 µg/mL | 12.5 to 150 µg/mL |
| CCc1c(-c2ccc3c(c2)cc(CNCC(C)(C)C)n3C)[nH]c(=O)c(C(=O)O)c1O.Cl [Cpd 237, 5-ethyl-4-hydroxy-6-(1-methyl-2-((neopentylamino)methyl)-1H-indol-5-yl)-2-oxo-1,2-dihydropyridine-3-carboxylic acid hydrochloride] | 3.5 to 12.5 µg/mL | < 1 µg/mL | 1 to 3.5 µg/mL | 12.5 to 150 µg/mL |
| CCc1c(-c2ccc3c(c2)cc(CNC(C)c2cccnc2)n3C)[nH]c(=O)c(C(=O)O)c1O.Cl (centres unmarked) [Cpd 242, 5-ethyl-4-hydroxy-6-(1-methyl-2-((1-(pyridin-3-yl)ethylamino)methyl)-1H-indol-5-yl)-2-oxo-1,2-dihydropyridine-3-carboxylic acid hydrochloride] | 1 to 3.5 µg/mL | < 1 µg/mL | 1 to 3.5 µg/mL | 12.5 to 150 µg/mL |
| CCc1c(-c2ccc3c(c2)cc(CNC2CNC2)n3C)[nH]c(=O)c(C(=O)O)c1O.Cl.Cl [Cpd 244, 6-(2-((azetidin-3-ylamino)methyl)-1-methyl-1H-indol-5-yl)-5-ethyl-4-hydroxy-2-oxo-1,2-dihydropyridine-3-carboxylic acid dihydrochloride] | 12.5 to 150 µg/mL | 1 to 3.5 µg/mL | 12.5 to 150 µg/mL | 12.5 to 150 µg/mL |
| CCc1c(-c2ccc3c(c2)cc(CNC2CN(C)C2)n3C)[nH]c(=O)c(C(=O)O)c1O.Cl.Cl [Cpd 246, 5-ethyl-4-hydroxy-6-(1-methyl-2-((1-methylazetidin-3-ylamino)methyl)-1H-indol-5-yl)-2-oxo-1,2-dihydropyridine-3-carboxylic acid dihydrochloride] | 12.5 to 150 µg/mL | 1 to 3.5 µg/mL | 12.5 to 150 µg/mL | 3.5 to 12.5 µg/mL |
| CCc1c(-c2ccc3c(c2)cc(CN2CCC(F)(F)CC2)n3C)[nH]c(=O)c(C(=O)O)c1O [Cpd 249, 6-(2-((4,4-difluoropiperidin-1-yl)methyl)-1-methyl-1H-indol-5-yl)-5-ethyl-4-hydroxy-2-oxo-1,2-dihydropyridine-3-carboxylic acid] | 1 to 3.5 µg/mL (≈ 2.24 to 7.86 µM) | < 1 µg/mL | 12.5 to 150 µg/mL (≈ 28.1 to 337 µM) | 12.5 to 150 µg/mL (≈ 28.1 to 337 µM) |
| CCc1c(-c2ccc3c(c2)cc(CN2CCCCC2C(F)(F)F)n3C)[nH]c(=O)c(C(=O)O)c1O (centres unmarked) [Cpd 258, 5-ethyl-4-hydroxy-6-(1-methyl-2-((2-(trifluoromethyl)piperidin-1-yl)methyl)-1H-indol-5-yl)-2-oxo-1,2-dihydropyridine-3-carboxylic acid] | 3.5 to 12.5 µg/mL (≈ 7.33 to 26.2 µM) | < 1 µg/mL | 12.5 to 150 µg/mL (≈ 26.2 to 314 µM) | 12.5 to 150 µg/mL (≈ 26.2 to 314 µM) |
| CCc1c(-c2ccc3c(c2)cc(CN2CCCCC2CCOC)n3C)[nH]c(=O)c(C(=O)O)c1O (centres unmarked) [Cpd 259, 5-ethyl-4-hydroxy-6-(2-((2-(2-methoxyethyl)piperidin-1-yl)methyl)-1-methyl-1H-indol-5-yl)-2-oxo-1,2-dihydropyridine-3-carboxylic acid] | 3.5 to 12.5 µg/mL (≈ 7.49 to 26.7 µM) | < 1 µg/mL | 3.5 to 12.5 µg/mL (≈ 7.49 to 26.7 µM) | 12.5 to 150 µg/mL (≈ 26.7 to 321 µM) |
| CCc1c(-c2ccc3c(c2)cc(CN2CCCCC2CCCOC)n3C)[nH]c(=O)c(C(=O)O)c1O (centres unmarked) [Cpd 260, 5-ethyl-4-hydroxy-6-(2-((2-(3-methoxypropyl)piperidin-1-yl)methyl)-1-methyl-1H-indol-5-yl)-2-oxo-1,2-dihydropyridine-3-carboxylic acid] | 3.5 to 12.5 µg/mL (≈ 7.27 to 26 µM) | < 1 µg/mL | 3.5 to 12.5 µg/mL (≈ 7.27 to 26 µM) | 12.5 to 150 µg/mL (≈ 26 to 311 µM) |
| CCc1c(-c2ccc3c(c2)cc(CNC2CCNCC2)n3C)[nH]c(=O)c(C(=O)O)c1O [Cpd 263, 5-ethyl-4-hydroxy-6-(1-methyl-2-((piperidin-4-ylamino)methyl)-1H-indol-5-yl)-2-oxo-1,2-dihydropyridine-3-carboxylic acid] | 12.5 to 150 µg/mL (≈ 29.4 to 353 µM) | 3.5 to 12.5 µg/mL (≈ 8.24 to 29.4 µM) | 12.5 to 150 µg/mL (≈ 29.4 to 353 µM) | 12.5 to 150 µg/mL (≈ 29.4 to 353 µM) |
| CCc1c(-c2ccc3c(c2)cc(CN(CC2CC2)C2CCCNC2)n3C)[nH]c(=O)c(C(=O)O)c1O (centres unmarked) [Cpd 265, 6-(2-(((cyclopropylmethyl)(piperidin-3-yl)amino)methyl)-1-methyl-1H-indol-5-yl)-5-ethyl-4-hydroxy-2-oxo-1,2-dihydropyridine-3-carboxylic acid] | 1 to 3.5 µg/mL (≈ 2.09 to 7.31 µM) | 1 to 3.5 µg/mL (≈ 2.09 to 7.31 µM) | 12.5 to 150 µg/mL (≈ 26.1 to 313 µM) | 12.5 to 150 µg/mL (≈ 26.1 to 313 µM) |
| CCc1c(-c2ccc3c(c2)cc(CN2CCC[C@H]2CNc2ccccc2)n3C)[nH]c(=O)c(C(=O)O)c1O [Cpd 266, (S)-5-ethyl-4-hydroxy-6-(1-methyl-2-((2-((phenylamino)methyl)pyrrolidin-1-yl)methyl)-1H-indol-5-yl)-2-oxo-1,2-dihydropyridine-3-carboxylic acid] | < 1 µg/mL | < 1 µg/mL | 12.5 to 150 µg/mL (≈ 25 to 300 µM) | 12.5 to 150 µg/mL (≈ 25 to 300 µM) |
| CCc1c(-c2ccc3c(c2)cc(CN2CCC(c4ccccn4)C2)n3C)[nH]c(=O)c(C(=O)O)c1O (centres unmarked) [Cpd 267, 5-ethyl-4-hydroxy-6-(1-methyl-2-((3-(pyridin-2-yl)pyrrolidin-1-yl)methyl)-1H-indol-5-yl)-2-oxo-1,2-dihydropyridine-3-carboxylic acid] | 3.5 to 12.5 µg/mL (≈ 7.41 to 26.5 µM) | < 1 µg/mL | 1 to 3.5 µg/mL (≈ 2.12 to 7.41 µM) | 12.5 to 150 µg/mL (≈ 26.5 to 317 µM) |
| CCc1c(-c2ccc3c(c2)cc(CN2CCC(c4ccncc4)C2)n3C)[nH]c(=O)c(C(=O)O)c1O (centres unmarked) [Cpd 268, 5-ethyl-4-hydroxy-6-(1-methyl-2-((3-(pyridin-4-yl)pyrrolidin-1-yl)methyl)-1H-indol-5-yl)-2-oxo-1,2-dihydropyridine-3-carboxylic acid] | 3.5 to 12.5 µg/mL (≈ 7.41 to 26.5 µM) | < 1 µg/mL | 3.5 to 12.5 µg/mL (≈ 7.41 to 26.5 µM) | 12.5 to 150 µg/mL (≈ 26.5 to 317 µM) |
| CCc1c(-c2ccc3c(c2)cc(CN2CC(C(=O)O)C2)n3C)[nH]c(=O)c(C(=O)O)c1O [Cpd 269, 6-(2-((3-carboxyazetidin-1-yl)methyl)-1-methyl-1H-indol-5-yl)-5-ethyl-4-hydroxy-2-oxo-1,2-dihydropyridine-3-carboxylic acid] | 12.5 to 150 µg/mL (≈ 29.4 to 353 µM) | 3.5 to 12.5 µg/mL (≈ 8.23 to 29.4 µM) | 12.5 to 150 µg/mL (≈ 29.4 to 353 µM) | 12.5 to 150 µg/mL (≈ 29.4 to 353 µM) |
| CCc1c(-c2ccc3c(c2)cc(CN2CC(C(=O)N(C)C)C2)n3C)[nH]c(=O)c(C(=O)O)c1O [Cpd 270, 6-(2-((3-(dimethylcarbamoyl)azetidin-1-yl)methyl)-1-methyl-1H-indol-5-yl)-5-ethyl-4-hydroxy-2-oxo-1,2-dihydropyridine-3-carboxylic acid] | 3.5 to 12.5 µg/mL (≈ 7.73 to 27.6 µM) | < 1 µg/mL | 3.5 to 12.5 µg/mL (≈ 7.73 to 27.6 µM) | 12.5 to 150 µg/mL (≈ 27.6 to 331 µM) |
| CCc1c(-c2ccc3c(c2)cc(CN[C@H](C)C(F)(F)F)n3C)[nH]c(=O)c(C(=O)O)c1O [Cpd 272, (R)-5-ethyl-4-hydroxy-6-(1-methyl-2-((1,1,1-trifluoropropan-2-ylamino)methyl)-1H-indol-5-yl)-2-oxo-1,2-dihydropyridine-3-carboxylic acid] | 1 to 3.5 µg/mL (≈ 2.29 to 8 µM) | < 1 µg/mL | 12.5 to 150 µg/mL (≈ 28.6 to 343 µM) | 12.5 to 150 µg/mL (≈ 28.6 to 343 µM) |
| CCc1c(-c2ccc3c(c2)cc(CN[C@@H](C)C(F)(F)F)n3C)[nH]c(=O)c(C(=O)O)c1O [Cpd 273, (S)-5-ethyl-4-hydroxy-6-(1-methyl-2-((1,1,1-trifluoropropan-2-ylamino)methyl)-1H-indol-5-yl)-2-oxo-1,2-dihydropyridine-3-carboxylic acid] | 3.5 to 12.5 µg/mL (≈ 8 to 28.6 µM) | < 1 µg/mL | 12.5 to 150 µg/mL (≈ 28.6 to 343 µM) | 12.5 to 150 µg/mL (≈ 28.6 to 343 µM) |
| CCc1c(-c2ccc3c(c2)cc(CN2C[C@H]4CCC[C@@H](N(C)Cc5ccccc5)[C@H]4C2)n3C)[nH]c(=O)c(C(=O)O)c1O [Cpd 280, 6-(2-(((3aR,4R,7aS)-4-(benzyl(methyl)amino)-1H-isoindol-2(3H,3aH,4H,5H,6H,7H,7aH)-yl)methyl)-1-methyl-1H-indol-5-yl)-5-ethyl-4-hydroxy-2-oxo-1,2-dihydropyridine-3-carboxylic acid] | 1 to 3.5 µg/mL (≈ 1.76 to 6.15 µM) | < 1 µg/mL | 12.5 to 150 µg/mL (≈ 22 to 264 µM) | 12.5 to 150 µg/mL (≈ 22 to 264 µM) |
